Source: patent US20050032866A1, “The use of 5ht4 receptor antagonists in the prophylaxis or treatment of certain cardiovascular conditions” (priority 2000, published 2005)

Columns and labels:
5-HT1E = 5-HT1E (Homo sapiens, UniProt P28566); test: receptor binding studies, 5-HT1E; details: read-out: pKd 5-HT1E (converted)
5-HT4 receptor [1] = target: T1, 5-HT4 receptor (Rattus norvegicus, UniProt Q62758); test: rat oesophageal tunica muscularis mucosae, relaxation to 5-HT; format: cell-based
T1 construct: The inner smooth muscle tube of the muscularis mucosae is isolated and mounted for isometric tension recording; from tissue; host or cells: rat oesophageal tunica muscularis mucosae
Source text: Rat oesophageal tunica muscularis mucosae is set up according to Baxter et. al. Naunyn-Schmiedeberg's Arch.

[2] = tested on: DMPP-evoked contractions (nicotinic receptor agonist); test: guinea pig colon, DMPP-evoked contractions; format: cell-based; details: 10^−5M
Protocol: (§1) In some experiments, this tissue was dosed alternately with an approximately equi-effective concentration of the nicotine receptor stimulant, dimethylphenylpiperazinium (DMPP).

H1 = H1 (Homo sapiens, UniProt P35367); test: receptor binding studies, H1; details: read-out: pKd H1 (converted)
Opiate mu = Opiate mu (Homo sapiens, UniProt P35372); test: receptor binding studies, Opiate mu; details: read-out: pKi Opiate mu (converted)
Opiate delta = Opiate delta (Homo sapiens, UniProt P41143); test: receptor binding studies, Opiate delta; details: read-out: pKi Opiate delta (converted)
5-HT4 receptor [3] = test: 5-HT-induced motility in dog Heidenhain gastric pouch; format: in vivo
Protocol: Compounds are tested for inhibition in the in vivo method described in “Stimulation of canine motility by BRL 24924, a new gastric prokinetic agent”, Bermudez et al, J. Gastrointestinal Motility, 1990, 2(4), 281-286.
Dogs with previously prepared Heidenhain gastric pouches are fasted overnight.

5-HT4 receptor [4] = target: T2, 5-HT4 receptor (Cavia porcellus, UniProt O70528); test: guinea pig distal colon longitudinal muscle-myenteric plexus, 5-HT-evoked contraction; format: cell-based
T2 construct: Longitudinal muscle-myenteric plexus preparations, approximately 3 cm long, are obtained from the distal colon region; from tissue; host or cells: guinea-pig distal colon longitudinal muscle-myenteric plexus
Protocol: Male guinea-pigs, weighing 250-400 g are used.
as §1

[5] = tested on: social interaction in rats; test: social interaction test in rats (anxiolytic activity); format: in vivo, rat
Protocol: Rats (male, Sprague Dawleys, Charles River, 250-300 g) are housed in groups of eight in a holding room for 5 days. They are then housed singly in a room adjacent to the experimental room for 4 days prior to the experimental day. On the experimental day rats are administered vehicle, test compound or a benzodiazepine anxiolytic, chlordiazepoxide, p.o. in pairs (n=8-16), at 15 minute intervals beginning at 10.00 a.m. […] The box is made of white perspex 54 cm×37 cm×26 cm with a transparent perspex front side and no lid. The floor is divided up into 24 squares and the box is brightly lit (115 lux). Active social interactive behaviours (grooming, sniffing, climbing over or under, following, biting, mounting and boxing) are scored blind for the next 15 min by remote video monitoring to give total interaction scores. The number of squares crossed by each rat is also scored and summed. After the end of each test the box is carefully wiped.

5-HT1D = 5-HT1D (Homo sapiens, UniProt P28221); test: receptor binding studies, 5-HT1D; details: read-out: pKd 5-HT1D (converted)
Opiate kappa = Opiate kappa (Homo sapiens, UniProt P41145); test: receptor binding studies, Opiate kappa; details: read-out: pKi Opiate kappa (converted)
D3 = D3 (Homo sapiens, UniProt P35462); test: receptor binding studies, D3; details: read-out: pKd D3 (converted)
5-HT2A = 5-HT2A (Homo sapiens, UniProt P28223); test: receptor binding studies, 5-HT2A; details: read-out: pKd 5-HT2A (converted)
5-HT2B receptor = target: T3, 5-HT2B receptor (Rattus norvegicus, UniProt P30994); test: functional studies on the rat stomach fundus; format: cell-based
T3 construct: from tissue; host or cells: rat stomach fundus

D2 = D2 (Homo sapiens, UniProt P14416); test: receptor binding studies, D2; details: read-out: pKd D2 (converted)
Alpha1 = test: receptor binding studies, Alpha1
5-HT2C = 5-HT2C (Homo sapiens, UniProt P28335); test: receptor binding studies, 5-HT2C; details: read-out: pKd 5-HT2C (converted)
5-HT4 receptors = test: antagonism of 5-HT-evoked tachycardia in anaesthetised piglets; format: in vivo, piglet
Source text: All experiments were in 2-5 day old piglets in which the vagi were sectioned.

BDZ = test: receptor binding studies, BDZ
5-HT3 = 5-HT3 (Homo sapiens, UniProt P46098); test: receptor binding studies, 5-HT3; details: read-out: pKd 5-HT3 (converted)
GABA = test: receptor binding studies, GABA
5-HT1A = 5-HT1A (Homo sapiens, UniProt P08908); test: receptor binding studies, 5-HT1A; details: read-out: pKd 5-HT1A (converted)

T2 sequence (O70528 whole entry): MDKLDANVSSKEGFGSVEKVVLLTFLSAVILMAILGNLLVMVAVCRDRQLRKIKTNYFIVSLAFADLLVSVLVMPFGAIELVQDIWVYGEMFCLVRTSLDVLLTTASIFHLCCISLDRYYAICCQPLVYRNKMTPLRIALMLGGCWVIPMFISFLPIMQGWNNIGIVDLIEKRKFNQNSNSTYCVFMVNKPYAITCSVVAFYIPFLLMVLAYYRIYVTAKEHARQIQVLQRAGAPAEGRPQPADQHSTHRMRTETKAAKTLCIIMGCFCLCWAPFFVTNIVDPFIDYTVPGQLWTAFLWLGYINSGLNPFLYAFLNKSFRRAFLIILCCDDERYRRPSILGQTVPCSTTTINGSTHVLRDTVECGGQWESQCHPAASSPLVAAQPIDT
Chain of Opiate kappa (P41145 whole entry): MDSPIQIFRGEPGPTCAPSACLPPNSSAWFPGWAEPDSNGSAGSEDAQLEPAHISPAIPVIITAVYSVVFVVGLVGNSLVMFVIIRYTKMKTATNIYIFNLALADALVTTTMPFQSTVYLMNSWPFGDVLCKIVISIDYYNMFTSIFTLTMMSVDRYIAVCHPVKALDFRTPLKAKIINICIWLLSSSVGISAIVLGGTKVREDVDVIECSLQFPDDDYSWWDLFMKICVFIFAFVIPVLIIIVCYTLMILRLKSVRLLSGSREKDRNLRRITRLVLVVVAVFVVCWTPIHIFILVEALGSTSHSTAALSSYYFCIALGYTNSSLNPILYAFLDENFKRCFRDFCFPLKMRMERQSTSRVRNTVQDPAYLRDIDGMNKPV
Chain of 5-HT1D (P28221 whole entry, species assumed): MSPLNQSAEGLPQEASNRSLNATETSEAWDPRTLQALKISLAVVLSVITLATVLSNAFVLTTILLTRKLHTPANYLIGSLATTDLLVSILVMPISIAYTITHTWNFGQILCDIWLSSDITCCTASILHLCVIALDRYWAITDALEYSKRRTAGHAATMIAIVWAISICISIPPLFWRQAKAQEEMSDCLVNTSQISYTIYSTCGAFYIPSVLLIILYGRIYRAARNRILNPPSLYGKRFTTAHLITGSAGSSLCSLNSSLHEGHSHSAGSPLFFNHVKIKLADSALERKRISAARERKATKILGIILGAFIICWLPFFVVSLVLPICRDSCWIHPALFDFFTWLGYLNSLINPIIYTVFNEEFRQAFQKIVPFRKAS
Chain of D3 (P35462 whole entry): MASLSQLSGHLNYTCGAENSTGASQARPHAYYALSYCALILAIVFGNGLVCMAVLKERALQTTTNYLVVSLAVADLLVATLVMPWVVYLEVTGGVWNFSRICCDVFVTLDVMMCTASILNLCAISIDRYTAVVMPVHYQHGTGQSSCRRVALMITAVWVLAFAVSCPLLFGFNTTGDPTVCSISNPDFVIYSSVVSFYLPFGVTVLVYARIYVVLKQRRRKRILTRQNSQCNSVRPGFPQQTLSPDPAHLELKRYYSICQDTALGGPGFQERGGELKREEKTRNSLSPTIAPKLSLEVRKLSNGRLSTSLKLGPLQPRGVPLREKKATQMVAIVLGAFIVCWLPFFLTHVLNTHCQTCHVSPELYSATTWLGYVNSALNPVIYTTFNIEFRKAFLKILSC
Chain of 5-HT2C (P28335 33-458, species assumed): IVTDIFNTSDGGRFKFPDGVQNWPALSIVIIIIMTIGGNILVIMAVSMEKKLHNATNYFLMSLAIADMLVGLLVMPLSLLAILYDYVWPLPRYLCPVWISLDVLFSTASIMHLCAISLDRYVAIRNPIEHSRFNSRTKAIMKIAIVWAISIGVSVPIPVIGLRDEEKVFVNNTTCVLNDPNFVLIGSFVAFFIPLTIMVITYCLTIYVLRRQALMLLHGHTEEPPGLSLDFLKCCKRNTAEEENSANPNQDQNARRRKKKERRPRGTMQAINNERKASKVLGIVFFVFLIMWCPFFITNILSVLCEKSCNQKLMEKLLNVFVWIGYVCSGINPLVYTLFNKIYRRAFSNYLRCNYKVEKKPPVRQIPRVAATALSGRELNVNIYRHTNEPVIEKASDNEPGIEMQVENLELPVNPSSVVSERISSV
T1 sequence (Q62758 whole entry): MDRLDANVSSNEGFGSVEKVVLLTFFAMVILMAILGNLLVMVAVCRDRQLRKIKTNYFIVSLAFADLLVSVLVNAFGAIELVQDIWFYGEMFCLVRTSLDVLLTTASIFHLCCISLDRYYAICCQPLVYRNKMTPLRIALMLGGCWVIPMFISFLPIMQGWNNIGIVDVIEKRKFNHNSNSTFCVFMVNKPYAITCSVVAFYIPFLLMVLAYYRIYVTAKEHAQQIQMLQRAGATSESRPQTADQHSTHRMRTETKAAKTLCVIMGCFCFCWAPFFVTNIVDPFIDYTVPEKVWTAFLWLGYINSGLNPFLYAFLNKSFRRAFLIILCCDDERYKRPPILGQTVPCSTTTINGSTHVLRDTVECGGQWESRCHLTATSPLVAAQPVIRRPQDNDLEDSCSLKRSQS
Chain of 5-HT2A (P28223 whole entry, species assumed): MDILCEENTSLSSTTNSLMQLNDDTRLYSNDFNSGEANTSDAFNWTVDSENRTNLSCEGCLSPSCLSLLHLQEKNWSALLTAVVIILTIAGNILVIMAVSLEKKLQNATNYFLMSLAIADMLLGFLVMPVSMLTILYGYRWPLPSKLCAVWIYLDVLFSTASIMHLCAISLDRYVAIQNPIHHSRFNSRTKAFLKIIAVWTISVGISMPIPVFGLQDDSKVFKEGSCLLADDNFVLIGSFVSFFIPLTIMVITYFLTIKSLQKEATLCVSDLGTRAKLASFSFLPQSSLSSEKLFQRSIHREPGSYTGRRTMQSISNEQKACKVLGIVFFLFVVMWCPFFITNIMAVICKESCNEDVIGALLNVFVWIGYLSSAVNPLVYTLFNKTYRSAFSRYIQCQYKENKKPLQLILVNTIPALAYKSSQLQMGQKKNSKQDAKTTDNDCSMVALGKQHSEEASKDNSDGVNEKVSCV
Chain of H1 (P35367 whole entry): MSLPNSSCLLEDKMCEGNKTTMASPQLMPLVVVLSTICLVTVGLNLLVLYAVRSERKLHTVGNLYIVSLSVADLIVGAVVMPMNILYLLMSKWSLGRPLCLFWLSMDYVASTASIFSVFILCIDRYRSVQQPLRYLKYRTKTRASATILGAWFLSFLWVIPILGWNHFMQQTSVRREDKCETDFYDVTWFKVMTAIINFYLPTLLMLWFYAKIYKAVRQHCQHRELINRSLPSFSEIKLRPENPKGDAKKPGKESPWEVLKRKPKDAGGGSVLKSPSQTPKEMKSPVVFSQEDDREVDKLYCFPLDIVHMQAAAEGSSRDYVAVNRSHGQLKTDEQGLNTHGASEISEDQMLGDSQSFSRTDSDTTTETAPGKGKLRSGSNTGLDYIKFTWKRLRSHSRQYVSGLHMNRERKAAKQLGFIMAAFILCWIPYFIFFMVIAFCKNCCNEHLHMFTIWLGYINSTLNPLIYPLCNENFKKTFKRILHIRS
Chain of Opiate delta (P41143 whole entry): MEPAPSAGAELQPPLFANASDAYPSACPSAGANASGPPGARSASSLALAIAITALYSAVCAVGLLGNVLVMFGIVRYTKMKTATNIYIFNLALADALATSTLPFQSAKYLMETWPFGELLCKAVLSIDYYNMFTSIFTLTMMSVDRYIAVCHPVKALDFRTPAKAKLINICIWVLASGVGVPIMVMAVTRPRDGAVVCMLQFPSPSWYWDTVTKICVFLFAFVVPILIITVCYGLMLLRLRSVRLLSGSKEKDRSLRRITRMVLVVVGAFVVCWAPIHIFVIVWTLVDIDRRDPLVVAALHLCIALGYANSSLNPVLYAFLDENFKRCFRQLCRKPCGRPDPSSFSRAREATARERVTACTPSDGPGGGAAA
Chain of D2 (P14416 whole entry): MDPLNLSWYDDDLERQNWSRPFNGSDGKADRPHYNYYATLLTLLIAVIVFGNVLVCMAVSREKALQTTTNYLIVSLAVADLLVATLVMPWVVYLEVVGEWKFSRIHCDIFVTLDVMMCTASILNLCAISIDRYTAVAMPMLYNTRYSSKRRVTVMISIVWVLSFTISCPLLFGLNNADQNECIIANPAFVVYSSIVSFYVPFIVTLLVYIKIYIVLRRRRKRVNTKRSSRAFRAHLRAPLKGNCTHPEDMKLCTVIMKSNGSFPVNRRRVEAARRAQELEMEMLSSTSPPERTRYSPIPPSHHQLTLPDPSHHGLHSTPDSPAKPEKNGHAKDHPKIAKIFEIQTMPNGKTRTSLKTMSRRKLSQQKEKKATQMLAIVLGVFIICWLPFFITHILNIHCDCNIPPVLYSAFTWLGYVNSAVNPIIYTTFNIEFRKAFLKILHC
T3 sequence (P30994 whole entry): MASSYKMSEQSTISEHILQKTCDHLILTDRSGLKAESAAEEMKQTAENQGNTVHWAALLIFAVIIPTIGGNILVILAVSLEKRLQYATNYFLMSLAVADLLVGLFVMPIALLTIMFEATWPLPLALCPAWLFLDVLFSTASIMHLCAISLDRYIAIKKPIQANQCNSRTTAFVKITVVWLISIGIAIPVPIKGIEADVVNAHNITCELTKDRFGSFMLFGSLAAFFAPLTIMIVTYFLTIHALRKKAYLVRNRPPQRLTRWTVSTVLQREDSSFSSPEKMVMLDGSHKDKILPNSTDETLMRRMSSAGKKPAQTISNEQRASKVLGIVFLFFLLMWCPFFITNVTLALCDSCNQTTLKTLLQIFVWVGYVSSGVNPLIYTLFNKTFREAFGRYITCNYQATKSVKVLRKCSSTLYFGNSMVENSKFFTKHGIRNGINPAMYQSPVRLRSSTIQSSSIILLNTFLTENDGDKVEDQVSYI

## CCCCN1CCC(CNC(=O)c2c3n(c4ccccc24)CCCO3)CC1 [SB-207266-A, N-[(1-^nbutyl-4-piperidinyl)methyl]-3,4-dihydro-2H-[1,3]oxazino[3,2-a]indole-10-carboxamide]
5-HT1E
  Kd: > 10 µM
5-HT4 receptor [1]
  type of antagonism of 5-HT response: non-surmountable antagonist
[2]
  DMPP-evoked contractions: unaffected
H1
  Kd: 3.98 µM
Opiate mu
  Ki: < 1 µM
Opiate delta
  Ki: < 1 µM
5-HT4 receptor [3]; any dose
  effect on basal motility: no effect
5-HT4 receptor [3]; iv
  ID50, antagonism of the contractile response to 5-HT: 1.3 (Confidence Limits 0.1-14.0) ug.kg^−1
5-HT4 receptor [3]; po
  ID50, antagonism of the contractile response to 5-HT: 9.6 (CL 0.7-128) ug.kg^−1
5-HT4 receptor [4]
  contraction evoked by the 5-HT4 receptor partial agonist BIMU 1: reduced the maximum response to BIMU 1
5-HT4 receptor [4]; 3×10^−8 M and above
  maximum response to 5-HT: reduced in a concentration-dependent manner
5-HT4 receptor [4]; highest concentrations (which reduce maximum 5-HT-evoked contractions)
  time for recovery of responses to 5-HT upon washout: ≤ 90 min
[5]; 0.01, 1, 10 mg.kg^−1, 1 h after administration
  total interaction scores: Significantly increased
[5]; rat, in vivo
  locomotion during the test: not accompanied by any alteration in locomotion
5-HT1D
  Kd: > 10 µM
Opiate kappa
  Ki: < 1 µM
D3
  Kd: 2.95 µM
5-HT2A
  Kd: 1.29 µM
5-HT2B receptor
  affinity for the 5-HT2B receptor: 7.47
D2
  Kd: 2.34 µM
Alpha1
  pKd Alpha1: <5.52
5-HT2C
  Kd: 2.69 µM
5-HT4 receptors; 0.1, 0.3 or 1.0 ugkg^−1 intravenously, n=2 each
  antagonism of 5-HT-evoked tachycardia: antagonised the 5-HT-evoked tachycardia in a dose-dependent manner
5-HT4 receptors; 0.3, 1.0 ugkg^−1 i.v., over the duration of the experiment
  recovery from antagonism: incomplete
BDZ
  pKd BDZ: >5.00
5-HT3
  Kd: 1.15 µM
GABA
  pKd GABA: >5.00
5-HT1A
  Kd: > 10 µM
